Experimental data reported in US20100298221A1, “2-PHENOXY NICOTINE ACID DERIVATIVE AND USE THEREOF” (BAYER SCHERING PHARMA AKTIENGESELLSCHAFT, priority 2006, published 2010).

Target: T1, human PPARα-receptor (Homo sapiens, UniProt Q07869)
T1 construct: expressed in transfected cells; host or cells: CHO (chinese hamster ovary) cells, stably transfected
T1 sequence (Q07869 167-468): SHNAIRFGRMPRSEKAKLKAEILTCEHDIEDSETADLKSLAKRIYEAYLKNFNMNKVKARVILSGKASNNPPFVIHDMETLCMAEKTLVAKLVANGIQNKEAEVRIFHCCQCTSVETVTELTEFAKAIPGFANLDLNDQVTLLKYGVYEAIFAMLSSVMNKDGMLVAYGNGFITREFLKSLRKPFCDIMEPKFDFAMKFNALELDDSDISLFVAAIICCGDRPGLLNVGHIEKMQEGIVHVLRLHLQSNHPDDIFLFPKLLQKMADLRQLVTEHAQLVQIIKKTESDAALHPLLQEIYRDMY
Assay: Cellular transactivation assay (GAL4-PPARα chimera, luciferase reporter, CHO cells)
Assay type: cell-based
Details: CHO cells stably expressing GAL4-PPARα chimera and luciferase reporter; stimulation time 6 h
Text: A cellular assay is used to identify activators of the peroxisome proliferator-activated receptor alpha (PPAR-alpha).
Since mammalian cells contain different endogenous nuclear receptors which can complicate unambiguous interpretation of the results, an established chimera system is used, in which the ligand binding domain of the human PPARα-receptor is fused to the DNA binding domain of the yeast transcription factors GAL4. The GAL4-PPARα chimera thus formed is co-transfected and expressed stably in CHO cells with a reporter construct.
The GAL4-PPARα expression construct contains the ligand binding domain of PPARα (amino acids 167-468), which is PCR-amplified and cloned into the vector pcDNA3.1. This vector already contains the GAL4 DNA binding domain (amino acids 1-147) of the vector pFC2-dbd (Stratagene). The reporter construct, which contains five copies of the GAL4 binding site upstream of a thymidine kinase promoter, leads to the expression of firefly luciferase (Photinus pyralis) after activation and binding of GAL4-PPARα.
The day before the test, CHO (chinese hamster ovary) cells which stably express the above-described GAL4-PPARα chimera and luciferase reporter gene construct are plated out in 96-hole microtiter plates with 1×10^3 cells in medium (Optimem, GIBCO), 2% activated carbon-purified fetal calf serum (Hyclone), 1.35 mM sodium pyruvate (GIBCO), 0.2% sodium bicarbonate (GIBCO), and kept in a cell incubator (air humidity 96%, 5% v/v CO2, 37° C.). On the day of the test, the substances to be tested are taken up in abovementioned medium, but without addition of calf serum, and added to the cells. After a stimulation time of 6 h, the luciferase activity is measured with the aid of a video camera. The relative light units measured give a sigmoid stimulation curve as a function of the substance concentration. The EC50 values are calculated with the aid of the computer program GraphPad PRISM (Version 3.02).

Row | SMILES | EC50
1 | Cc1cc(-c2ccc(C(=O)O)c(Oc3ccccc3Cl)n2)ccc1F [Example 4, 2-(2-Chlorophenoxy)-6-(4-fluoro-3-methylphenyl)nicotinic acid] | 157 nM
2 | O=C(O)c1ccc(-c2ccc(Cl)nc2)nc1Oc1ccccc1Cl [Example 16, 6′-Chloro-6-(2-chlorophenoxy)-2,3′-bipyridine-5-carboxylic acid] | 870 nM
3 | N#Cc1ccc(Cl)c(Oc2nc(-c3cc(F)cc(F)c3)ccc2C(=O)O)c1 [Example 17, 2-(2-Chloro-5-cyanophenoxy)-6-(3,5-difluorophenyl)nicotinic acid] | 69 nM
4 | O=C(O)c1ccc(-c2cccc(F)c2F)nc1Oc1ccccc1OC(F)(F)F [Example 26, 2-(2-Trifluoromethoxyphenoxy)-6-(2,3-difluorophenyl)nicotinic acid] | 76 nM
5 | O=C(O)c1cc(F)c(-c2ccc(C(F)(F)F)cc2)nc1Oc1ccccc1Cl [Example 38, 2-(2-Chlorophenoxy)-5-fluoro-6-(4-trifluoromethylphenyl)nicotinic acid] | 360 nM
6 | COc1cccc(-c2cc(C(F)(F)F)c(C(=O)O)c(Oc3ccccc3Cl)n2)c1F [Example 42, 2-(2-Chlorophenoxy)-6-(2-fluoro-3-methoxyphenyl)-4-trifluoromethylnicotinic acid] | 541 nM

Compounds with a lower EC50, results first:

Row | EC50 | SMILES
7 | 34 nM | Cc1ccc(-c2nc(Oc3ccccc3Cl)c(C(=O)O)cc2F)cc1F [Example 36, 2-(2-Chlorophenoxy)-5-fluoro-6-(3-fluoro-4-methylphenyl)nicotinic acid]
8 | 33 nM | Cc1ccc(-c2ccc(C(=O)O)c(Oc3ccccc3Cl)n2)cc1F [Example 5, 2-(2-Chlorophenoxy)-6-(3-fluoro-4-methylphenyl)nicotinic acid]
9 | 14 nM | Cc1ccc(-c2cc(C(F)(F)F)c(C(=O)O)c(Oc3ccccc3Cl)n2)cc1F [Example 11, 2-(2-Chlorophenoxy)-6-(3-fluoro-4-methylphenyl)-4-(trifluoromethyl)nicotinic acid]
